Holding throughout (assay type): cell-based
The subject of one test is MT-1 cells. Description: Proliferation of MT-1 cells (Cell Countdown Kit-8, formazan absorbance). The conditions noted are these: 4 days, FIG. 3. As to the method:
MT-1 cells (ATL-derived cell lines) were purchased from JCRB Cell Bank. MT-1 cells were seeded on a 24-well plate at 0.4×10^5 cells/0.9 mL/well and cultured for 3 hours in an RPMI1640 culture solution comprising 10% fetal bovine serum (FBS) and 1% penicillin-streptomycin in an environment of 37° C. and 5% CO2. Then, OR21, a DNA methyl transferase inhibitor and/or EPZ-6438 or DS-3201b, histone methyl transferase inhibitors were dissolved in the same culture solution, and 0.1 mL thereof was added to each well, and cultured for 4 days while exchanging with a fresh culture solution comprising each inhibitor every two days. The final concentrations of the inhibitors in the culture solution were 0.5 μM for OR21, 2.5 μM for EPZ-6438, and 0.1 μM, 0.5 μM, and 2.5 μM for DS-3201b. In addition, groups of single and combined additions of each inhibitor were provided. The effect of each inhibitor on cell proliferation was measured using Cell Countdown Kit-8 (Dojindo Laboratories). The water-soluble formazan in each well produced from reduction of tetrazolium salt […] was measured at two wavelength (450 nm/620 nm) using a plate reader (Varioskan Flash, Thermo-Fisher Scientific). The results are expressed as relative values with the absorbance of the wells in which no inhibitor was added as 100%.

For the next test, the system named is DUSP5 mRNA. Description: Expression amount of DUSP5 mRNA in MT-1 cells by RT-PCR. The conditions noted are these: 4 days culture, FIG. 2A. As to the method: (§1) MT-1 cells (ATL-derived cell lines) were purchased from JCRB Cell Bank and cultured in an RPMI1640 culture solution comprising 10% fetal bovine serum (FBS) and 1% penicillin-streptomycin in an environment of 37° C. and 5% CO2. The culture was started by additions of OR21, a DNA methyl transferase inhibitor and/or EPZ-6438, a histone methyl transferase inhibitor to a culture solution of MT-1 cells, exchanged with a fresh culture solution comprising the inhibitors after 2 days, and further cultured for 2 days. After culturing, the cells were collected and total RNA was extracted, and the expression amount of DUSP5 mRNA was measured by RT-PCR using SYBR @ Green (Takara Bio).

For the next test, the system named is DUSP5 protein. Description: Expression amount of DUSP5 protein in MT-1 cells by Western blotting. The conditions noted are these: 4 days culture, FIG. 2B. As to the method: as §1, with “dissolved,” for “total RNA was extracted,”, “protein” for “mRNA”, “Western blotting.” for “RT-PCR using SYBR @ Green (Takara Bio).”
For orientation: In western blotting, separated proteins are transferred to a membrane and probed.

From US20230193350A1, “METHOD FOR DIAGNOSING AND TREATING BLOOD CANCER” (Ohara Pharmaceutical Co., Ltd., priority 2020, published 2023) come the findings set out here.

As for `Cc1cc(C)c(CNC(=O)c2cc(Cl)c3c(c2C)O[C@@](C)([C@H]2CC[C@H](N(C)C)CC2)O3)c(=O)[nH]1.Cc1ccc(S(=O)(=O)O)cc1` [DS-3201b, 4-methylbenzene-1-sulfonic acid (2R)-7-chloro-2-[(trans)-4-(dimethylamino)cyclohexyl]-N-[(4,6-dimethyl-2-oxo-1,2-dihydropyridin-3-yl)methyl]-2,4-dimethyl-2H-1,3-benzodioxole-5-carboxamide], the “proliferation of MT-1 cells” value in the test on MT-1 cells (DS-3201b 0.1 μM to 2.5 μM) was “hardly affected”.
With `CCN(c1cc(-c2ccc(CN3CCOCC3)cc2)cc(C(=O)NCc2c(C)cc(C)[nH]c2=O)c1C)C1CCOCC1` [EPZ-6438, N-[(4,6-dimethyl-2-oxo-1,2-dihydropyridin-3-yl)methyl]-5-[ethyl(tetrahydro-2H-pyran-4-yl)amino]-4-methyl-4′-(morpholin-4-ylmethyl) biphenyl-3-carboxamide], in the test on DUSP5 mRNA (EPZ-6438 at 0.5 μM and 2.5 μM), the “DUSP5 mRNA expression” value is on record as “almost no effect”. The “expression amount of DUSP5 protein” value in the test with DUSP5 protein (EPZ-6438 2.5 μM) is “almost no effect”. In addition, in the test on MT-1 cells (EPZ-6438 2.5 μM), the “proliferation of MT-1 cells” value is “hardly affected”.
Consider `CC[Si](CC)(CC)OC[C@H]1O[C@@H](n2cnc(N)nc2=O)C[C@@H]1O` [OR21, 5′-O-triethylsilyl-2′-deoxy-5-azacytidine], for which the “DUSP5 mRNA expression” value in the test with DUSP5 mRNA (OR21 at 0.1 μM and 0.5 μM) is reported as “enhanced DUSP5 mRNA expression in a concentration-dependent manner”. Further, the “expression amount of DUSP5 protein” value in the test with DUSP5 protein (OR21 0.5 μM) is given as “apparent increase”. Also, the “proliferation of MT-1 cells” value with MT-1 cells (OR21 0.5 μM) was “exhibited an effect of inhibiting proliferation”.
